Measured values as given in patent US6326378A, “Use of thiadiazolo[4,3-a]pyridine derivatives” (Roche Diagnostics GmbH, priority 1998, dated 2001).
pIC50: −log10 of the molar value. Converted amounts (≈) assume the structure as drawn.

Legend:
[1] = tested on: dogs; test: Toxicity / tolerability in dogs; type: in vivo, dog
Excerpt: (§1) The behaviour of the dogs was normal.

[2] = tested on: mice; test: Toxicity / tolerability in mice; type: in vivo, mouse; settings: p.o. and i.p.
Excerpt: as §1

[3] = tested on: Lymphocytes; test: Lymphocytes, mixed lymphocytes reaction, thymidine incorporation; type: cell-based; settings: Lymphocyte; stimulus mixed lymphocytes reaction
Excerpt: (§2) The compound from Example 2b inhibits the activation of various types of leucocytes under different stimuli.

[4] = tested on: Peripheral leucocytes; test: Peripheral leucocytes, LPS, secretion of TNFα; type: cell-based; settings: Leucocyte; stimulus LPS
Excerpt: as §2

[5] = tested on: rats; test: Toxicity / tolerability in rats; type: in vivo, rat
Excerpt: as §1

[6] = tested on: T Lymphoblasts; test: T Lymphoblasts, thymidine incorporation; type: cell-based; settings: no stimulus
Excerpt: as §2

[7] = tested on: guinea pigs; test: Toxicity / tolerability in guinea pigs; type: in vivo, guinea pig; settings: p.o. and i.p.
Excerpt: as §1

[8] = tested on: conscious dogs (beagles); test: Effect on heart rate and arterial blood pressure of conscious dogs; type: in vivo, dog; settings: for DBP / MAP / SBP / HR: 24 mg/kg oral
Experimental: as §1
Effect on heart rate and on arterial blood pressure
of conscious dogs after oral administration of 24 mg/kg of the compound of […]

[9] = tested on: Phagocytes (PMNs); test: Phagocytes (PMNs), zymosan, chemiluminescence; type: cell-based; settings: stimulus zymosan
Excerpt: as §2

[10] = molecular target: PDE III; test: PDE III inhibition, isolated human enzyme preparations; type: biochemical; settings: isolated human enzyme preparation
Experimental: (§3) The IC50 values of the compound from Example 2b were determined to be 2×10^-5 mol/l (PDE IV) and 8×10^-5 mol/l (PDE III) on isolated human enzyme preparations.

[11] = tested on: Lymphocytes; test: Lymphocytes, ConA, thymidine incorporation; type: cell-based; settings: Lymphocyte; stimulus ConA
Excerpt: as §2

[12] = molecular target: PDE IV; test: PDE IV inhibition, isolated human enzyme preparations; type: biochemical; settings: isolated human enzyme preparation
Experimental: as §3

[13] = tested on: Basophilic granulocytes; test: Basophilic granulocytes, anti-IgE antibody, proteinase release; type: cell-based; settings: stimulus anti-IgE antibody
Excerpt: as §2

[14] = cited from earlier work
[15] = conscious beagles, 24 mg/kg, observation period up to 6 h
[16] = conscious beagles, 24 mg/kg, up to 6 h after administration

For `c1ccn2c(=Nc3ccncc3)snc2c1` [Example 2b, 3-(4-Pyridinylimino)-3H-[1,2,4]thiadiazolo[4,3-a]pyridine], the “behaviour of the dogs” value ([1]; conscious beagles, 24 mg/kg) was “normal”, the emetic action ([1]; conscious beagles, 24 mg/kg) was “not detectable” and the blood glucose [1, 15] was “remained unchanged”. The triglycerides [1, 15] was “remained unchanged”, the tolerability ([1]; dogs, p.o.) was “well tolerated” and the GPT ([1]; sign of liver damage, conscious beagles, 24 mg/kg, observation period up to 6 h) was “remained unchanged”. The tolerability [2] was “well tolerated”, the IC50 [3] was 7.6 mg/L (≈ 33.3 µM) and the IC50 [4] was less than 3 mg/L. The “side effects (behaviour, body weight, histology, haematological and clinicochemical parameters)” value ([5]; after 2 weeks, 40 mg/kg daily) was “not possible to determine any side effects”, the tolerability ([5]; p.o. and i.p.) was “well tolerated” and the IC50 [6] was 6.4 mg/L (≈ 28 µM). The tolerability [7] was “well tolerated”, the arterial blood pressure [8, 16] was “remained constant” and the heart rate [8, 16] was “remained constant”. It also gave a DBP ([8]; edible oil + 2% DMSO, 30 min, preliminary value 66) of 63 mmHg, an MAP ([8]; edible oil + 2% DMSO, 30 min, preliminary value 111) of 113 mmHg and an SBP ([8]; edible oil + 2% DMSO, 30 min, preliminary value 171) of 181 mmHg. It also gave a DBP ([8]; edible oil + 2% DMSO, 60 min, preliminary value 66) of 57 mmHg, an HR ([8]; edible oil + 2% DMSO, 60 min, preliminary value 79) of 82 beats/min and an MAP ([8]; edible oil + 2% DMSO, 60 min, preliminary value 111) of 109 mmHg. For the same compound, the SBP ([8]; edible oil + 2% DMSO, 60 min, preliminary value 171) was 178 mmHg, the DBP ([8]; edible oil + 2% DMSO, 90 min, preliminary value 66) was 58 mmHg and the HR ([8]; edible oil + 2% DMSO, 90 min, preliminary value 79) was 86 beats/min. For the same compound, the MAP ([8]; edible oil + 2% DMSO, 90 min, preliminary value 111) was 107 mmHg, the SBP ([8]; edible oil + 2% DMSO, 90 min, preliminary value 171) was 173 mmHg and the DBP ([8]; edible oil + 2% DMSO, 120 min, preliminary value 66) was 60 mmHg. For the same compound, the HR ([8]; edible oil + 2% DMSO, 120 min, preliminary value 79) was 82 beats/min, the MAP ([8]; edible oil + 2% DMSO, 120 min, preliminary value 111) was 109 mmHg and the SBP ([8]; edible oil + 2% DMSO, 120 min, preliminary value 171) was 175 mmHg. For the same compound, the DBP ([8]; edible oil + 2% DMSO, 150 min, preliminary value 66) was 63 mmHg, the HR ([8]; edible oil + 2% DMSO, 150 min, preliminary value 79) was 82 beats/min and the MAP ([8]; edible oil + 2% DMSO, 150 min, preliminary value 111) was 113 mmHg. It also gave an SBP ([8]; edible oil + 2% DMSO, 150 min, preliminary value 171) of 179 mmHg, a DBP ([8]; edible oil + 2% DMSO, 180 min, preliminary value 66) of 66 mmHg and an HR ([8]; edible oil + 2% DMSO, 180 min, preliminary value 79) of 87 beats/min. The MAP ([8]; edible oil + 2% DMSO, 180 min, preliminary value 111) was 114 mmHg, the SBP ([8]; edible oil + 2% DMSO, 180 min, preliminary value 171) was 179 mmHg and the DBP ([8]; edible oil + 2% DMSO, 210 min, preliminary value 66) was 68 mmHg. The HR ([8]; edible oil + 2% DMSO, 210 min, preliminary value 79) was 86 beats/min, the MAP ([8]; edible oil + 2% DMSO, 210 min, preliminary value 111) was 114 mmHg and the SBP ([8]; edible oil + 2% DMSO, 210 min, preliminary value 171) was 174 mmHg. It also gave a DBP ([8]; edible oil + 2% DMSO, 240 min, preliminary value 66) of 64 mmHg, an HR ([8]; edible oil + 2% DMSO, 240 min, preliminary value 79) of 93 beats/min and an MAP ([8]; edible oil + 2% DMSO, 240 min, preliminary value 111) of 109 mmHg. The SBP ([8]; edible oil + 2% DMSO, 240 min, preliminary value 171) was 169 mmHg, the DBP ([8]; edible oil + 2% DMSO, 300 min, preliminary value 66) was 65 mmHg and the HR ([8]; edible oil + 2% DMSO, 300 min, preliminary value 79) was 92 beats/min. It also gave an MAP ([8]; edible oil + 2% DMSO, 300 min, preliminary value 111) of 110 mmHg, an SBP ([8]; edible oil + 2% DMSO, 300 min, preliminary value 171) of 169 mmHg and a DBP ([8]; edible oil + 2% DMSO, 360 min, preliminary value 66) of 70 mmHg. It also gave an HR ([8]; edible oil + 2% DMSO, 360 min, preliminary value 79) of 91 beats/min, an MAP ([8]; edible oil + 2% DMSO, 360 min, preliminary value 111) of 115 mmHg and an SBP ([8]; edible oil + 2% DMSO, 360 min, preliminary value 171) of 174 mmHg. The HR ([8]; edible oil + 2% DMSO, 1 ml/kg, 30 min, preliminary value 79, average n=5) was 117 beats/min, the DBP ([8]; methyl cellulose 1% + 2% DMSO, 30 min, preliminary value 70) was 65 mmHg and the MAP ([8]; methyl cellulose 1% + 2% DMSO, 30 min, preliminary value 114) was 114 mmHg. It also gave an SBP ([8]; methyl cellulose 1% + 2% DMSO, 30 min, preliminary value 172) of 179 mmHg, a DBP ([8]; methyl cellulose 1% + 2% DMSO, 60 min, preliminary value 70) of 66 mmHg and an HR ([8]; methyl cellulose 1% + 2% DMSO, 60 min, preliminary value 83) of 79 beats/min. For the same compound, the MAP ([8]; methyl cellulose 1% + 2% DMSO, 60 min, preliminary value 114) was 114 mmHg, the SBP ([8]; methyl cellulose 1% + 2% DMSO, 60 min, preliminary value 172) was 178 mmHg and the DBP ([8]; methyl cellulose 1% + 2% DMSO, 90 min, preliminary value 70) was 63 mmHg. For the same compound, the HR ([8]; methyl cellulose 1% + 2% DMSO, 90 min, preliminary value 83) was 83 beats/min, the MAP ([8]; methyl cellulose 1% + 2% DMSO, 90 min, preliminary value 114) was 110 mmHg and the SBP ([8]; methyl cellulose 1% + 2% DMSO, 90 min, preliminary value 172) was 172 mmHg. For the same compound, the DBP ([8]; methyl cellulose 1% + 2% DMSO, 120 min, preliminary value 70) was 64 mmHg, the HR ([8]; methyl cellulose 1% + 2% DMSO, 120 min, preliminary value 83) was 80 beats/min and the MAP ([8]; methyl cellulose 1% + 2% DMSO, 120 min, preliminary value 114) was 111 mmHg. For the same compound, the SBP ([8]; methyl cellulose 1% + 2% DMSO, 120 min, preliminary value 172) was 173 mmHg, the DBP ([8]; methyl cellulose 1% + 2% DMSO, 150 min, preliminary value 70) was 64 mmHg and the HR ([8]; methyl cellulose 1% + 2% DMSO, 150 min, preliminary value 83) was 81 beats/min. It also gave an MAP ([8]; methyl cellulose 1% + 2% DMSO, 150 min, preliminary value 114) of 112 mmHg, an SBP ([8]; methyl cellulose 1% + 2% DMSO, 150 min, preliminary value 172) of 175 mmHg and a DBP ([8]; methyl cellulose 1% + 2% DMSO, 180 min, preliminary value 70) of 65 mmHg. For the same compound, the HR ([8]; methyl cellulose 1% + 2% DMSO, 180 min, preliminary value 83) was 76 beats/min, the MAP ([8]; methyl cellulose 1% + 2% DMSO, 180 min, preliminary value 114) was 114 mmHg and the SBP ([8]; methyl cellulose 1% + 2% DMSO, 180 min, preliminary value 172) was 178 mmHg. The DBP ([8]; methyl cellulose 1% + 2% DMSO, 210 min, preliminary value 70) was 63 mmHg, the HR ([8]; methyl cellulose 1% + 2% DMSO, 210 min, preliminary value 83) was 84 beats/min and the MAP ([8]; methyl cellulose 1% + 2% DMSO, 210 min, preliminary value 114) was 109 mmHg. The SBP ([8]; methyl cellulose 1% + 2% DMSO, 210 min, preliminary value 172) was 169 mmHg, the DBP ([8]; methyl cellulose 1% + 2% DMSO, 240 min, preliminary value 70) was 62 mmHg and the HR ([8]; methyl cellulose 1% + 2% DMSO, 240 min, preliminary value 83) was 74 beats/min. The MAP ([8]; methyl cellulose 1% + 2% DMSO, 240 min, preliminary value 114) was 108 mmHg, the SBP ([8]; methyl cellulose 1% + 2% DMSO, 240 min, preliminary value 172) was 167 mmHg and the DBP ([8]; methyl cellulose 1% + 2% DMSO, 300 min, preliminary value 70) was 62 mmHg. It also gave an HR ([8]; methyl cellulose 1% + 2% DMSO, 300 min, preliminary value 83) of 77 beats/min, an MAP ([8]; methyl cellulose 1% + 2% DMSO, 300 min, preliminary value 114) of 108 mmHg and an SBP ([8]; methyl cellulose 1% + 2% DMSO, 300 min, preliminary value 172) of 169 mmHg. The DBP ([8]; methyl cellulose 1% + 2% DMSO, 360 min, preliminary value 70) was 65 mmHg, the HR ([8]; methyl cellulose 1% + 2% DMSO, 360 min, preliminary value 83) was 75 beats/min and the MAP ([8]; methyl cellulose 1% + 2% DMSO, 360 min, preliminary value 114) was 110 mmHg. It also gave an SBP ([8]; methyl cellulose 1% + 2% DMSO, 360 min, preliminary value 172) of 170 mmHg, an HR ([8]; methyl cellulose 1% + 2% DMSO, 1 ml/kg, 30 min, preliminary value 83, average n=5) of 85 beats/min and an IC50 [9] of 27 mg/L (≈ 118 µM). The pIC50 [10] was 4.10, the IC50 [11] was 2.8 mg/L (≈ 12.3 µM) and the pIC50 [12] was 4.70. It also gave an IC50 [13] of 10 mg/L (≈ 43.8 µM).

For `Cn1c(=O)c2[nH]cnc2n(C)c1=O` [theophylline], the side effects ([14]; at slightly increased doses) is given as “nausea, giddiness, tachycardia and tremor” and the therapeutic breadth ([14]; employed for therapy) is given as “small therapeutic breadth”.
